These results are taken from patent publication US5750552A, “Imidazoline derivative, possible tautomer thereof, and vulnerary including such derivative or tautomer” (Arax Co., Ltd., priority 1995, dated 1998).

One experiment relates to wound in rat. Kind of experiment: Healing effect on wound in rat. Format: in vivo, SD rats. As to conditions: for Healing days / Healing Index: 15 days; for effect on healing days and Healing Index (in words): TABLES 7 and 8. How it is done: Healing Effect on wound in rat
Male 7-week SD rats were classified into groups each consisting of 6-7 rats, such that all the groups have substantially the same average weight. The experiment was performed on the rats according to a method of Tsurumi et al. (Oyo Yakuri, Vol. 7, pp833, 1973). Initially, the rats were subjected to an anesthesia with pentobarbital. The hair of the back of each rat was clipped, and the skin was disinfected with 70% ethanol. Then, the skin was lightly pulled and punched off in a direction from the right to the left by means of a punch whose diameter is 10 mm, so as to form two open wounds on portions of the back of the rat which are symmetrical to each other with respect to the center line of the back. The compounds of Examples indicated in the following TABLES 7 and 8 were used as specimen drugs, and orally administered once a day to each of the rats with doses indicated in the TABLES 7 and 8. The oral administration continued for 15 consecutive days, beginning from the first day when the wounds were formed on the back of each rat.
To clarify the healing effect on the wounds, an Healing Index and healing days were obtained in the following manner. Initially, the lengths of a major axis and a minor axis of each wound formed on the back were measured using calipers. On the basis of the measured length values, the area of each wound was calculated as the area of an ellipse. The Healing Index was obtained according to a method of Nakano et al. (Oyo Yakuri, Vol. 47, pp29, 1994). Described more specifically, a ratio of area of each wound was chronologically represented in a graph, and an area of the lower part of a curve in the graph during a period from the fifth day to the fifteenth day after the wounds were formed was obtained as the Healing Index. […] The healing days were obtained as the number of the days that were required for the wounds to be completely covered with regenerated epidermises. As for the wound that was healed in more than 15 days, the healing days were obtained as 16 days.

The next experiment has as its system bFGF mRNA. Kind of experiment: Effect on additional expression of bFGF mRNA in RGM1 cells (RT-PCR, band intensity). More on the design: key: ++: the expression of the bFGF mRNA in the imidazoline-treated cells was considerably increased; +: the expression of the bFGF mRNA was increased to some extent. Particulars: 48 hours, vs cells without the derivative. Format: cell-based, rat. An excerpt: Effect of imidazoline derivatives on the additional expression of the bFGF
There will be next explained an effect of the imidazoline derivatives in vitro.
Initially, there will be explained an effect of the imidazoline derivative on the additional expression of bFGF in the cells cultured. The reverse transcription-polymerase chain reaction (PCR) was used to explain the effects of imidazoline derivatives on the additional expression of bFGF, and then the PCR products were subjected to electrophoresis to confirm a bFGF band.
An established rat gastric mucosal epithelial cell line RGM1 was seeded in petri dishes (1×10^6 cells/dish), in the presence of D-MEM/Ham 12 (1:1) mixed medium containing 20% fetal calf serum. After 24 hours, the imidazoline derivatives as the specimen drugs according to the present invention were applied in the culture medium, and the cells were cultured for 48 hours. The compounds prepared in Examples 1 and 14 were used as the specimen drugs. Cultures were then supplemented with the compounds in final concentrations (10 μM and 100 μM for the compound of Example 1, and 3 μM, 10 μM and 100 μM for the compound of Example 14).
From the cultured cells of each sample subjected to the above-described processing by the specimen drugs, total cellular RNA was extracted according to Acid Guanidinium Thiocyanate-Phenol-Chloroform method (AGPC). Described more specifically, after cultivation with the above compounds in the culture medium, the culture supernatant was completely removed by suction. To the cells of each sample left in the petri dish, 500 μL of Solution D (consisting of: 4M of guanidinethiocyanate; 25 mM of sodium citrate; 0.5% sarkosyl solution, 0.1M of 2-mercaptoethanol) was added, and the cells were scraped with rubber policeman (available from SUMITOMO BAKELITE CO., LTD.). The thus obtained cell suspension was transfered into a micro centrifuge tube, and there were successively added 50 μL of 2M sodium acetate (pH 4.0), 500 μL of water-saturated phenol and 100 μL of chloroform-isoamyl alcohol (49:1). The suspension was mixed each time the above-described substances were added. The suspension was placed on ice for 15 minutes after it was intensely shaken for 1 minute. Then, the suspension was centrifuged at 10000 rpm for 20 minutes at 4° C. The aqueous layer (upper layer) was transfered into another micro centrifuge tube, and was intimately mixed with an equivalent amount of isopropanol. After the mixture was kept at -20° C. for one hour, it was centrifuged at 10000 rpm for 20 minutes at 4° C. After the centrifugation, the upper layer was discarded, and a precipitate of mRNA was completely dissolved in 200 μL of Solution D. The thus obtained solution was mixed again with an equivalent amount of isopropanol and the mixture was kept at -20° C. for one hour. The mixture was then subjected to centrifugation for 20 minutes at 4° C. and 10000 rpm. After the centrifugation, the supernatant was discarded, and the precipitate was centrifuged at 10000 rpm for 10 minutes at 4° C. The supernatant was discarded, while the precipitate was dried in vacuo for 5 minutes. The total RNA was dissolved in 50 μL of distilled water processed by diethyl pyrocarbonate (DEPC). The concentration of total RNA was measured on the basis of its absorbance at 260 nm by ultraviolet spectrum.
The CDNA synthesis was performed by means of Reverse Transcriptase using the above obtained total RNA as a template. As a primer, a random primer was employed. […]

Another experiment concerns bFGF. Kind of experiment: Production amount of bFGF in RGM1 culture supernatant (ELISA). Type of experiment: cell-based, Wistar rat. Particulars: not stated which. How it is done:
Effect of imidazoline derivatives on the additional expression of bFGF
Initially, RGM1 cells which are derived from a gastric mucosa epithelial cell of a Wistar rat were seeded into 24 well plates (2×10^4 cells/dish, 1 mL/well), and cultured for 24 hours. As the imidazoline derivative according to the present invention, the compound obtained in Example 14 was used. The compound was applied to the cells in final concentrations of 3 μM, 10 μM and 30 μM. After 24 hours, the culture supernatants which correspond to the respective concentration values were collected, and analyzed using bFGF ELISA kit. Similarly, the culture supernatants were collected 48 hours after the application of the compound. Described more specifically, 50 μL of each culture supernatant was applied to a 96 well microplate coated with bFGF monoclonal antibody. The plate was incubated for a predetermined time so that the bFGF contained in each culture supernatant was bonded to the bFGF monoclonal antibody. Thereafter, each supernatant was reacted with horseradish peroxidase conjugated antibody which is able to recognize another epitope of the bFGF, so as to form, on the 96 well microplate, a sandwich type composite body consisting of immobilized antibody (bFGF monoclonal antibody), antigen (bFGF), and HRP linked antibody. Subsequently, HRP linked antibody of the composite body was colored using o-phenylenediamine and H2 O2. The reaction was terminated by using sulfuric acid after a predetermined time has elapsed. Then, the absorbance of reactant at 490 nm was measured using a micro-platereader. The production amount of the bFGF was obtained for each culture supernatant, on the basis of the measured absorbance values, according to a standard curve prepared for a standard bFGF of a human body.
Background: An ELISA detects its analyte on a solid surface through an enzyme-linked reagent.

Experiment [1] concerns water-immersion restraint stress-induced gastric ulcer. Kind of experiment: Inhibitory effect on water-immersion restraint stress-induced gastric ulcer. Format: in vivo, SD rats. Particulars: 10 mg/kg oral, 30 min before stress. How it is done:
Inhibitory effect on water-immersion restraint stress-induced gastric ulcer
Male 7-week SD rats were fasted for 24 hours, with a fast of water beginning in early morning of the day when the experiments were performed. The rats were classified into groups each consisting of five rats, such that all the groups have substantially the same average weight. Thirty minutes before giving a stress to the rats, the compounds of the Examples indicated in TABLE 3 were orally administered as specimen drugs to the rats, with a dose of 10 mg/kg. The rats were then kept in stress cages, and were given a stress by immersing the cages in a water bath kept at a substantially constant temperature of 23°±1° C., such that the water level was at the height of the xiphoid of the rats. Seven hours later, the specimen rats were sacrificed by ether, and the gastric mucosa of each rat was semi-fixed with 2% formaline. The longitudinal length of the damaged area of the gastric mucosa was measured. A sum of the measured length values of the rats of each group was calculated as an ulcer index. An anti-ulcer or ulcer inhibitory percent (%) was calculated as {1-(ulcer index of each group of specimen rats)/(ulcer index of non-specimen group)}×100.

The test system of experiment [2] is gastric acid secretion in a pylorus ligated rat. Kind of experiment: Inhibitory effect on the gastric acid secretion in a pylorus ligated rat. As to conditions: 4 hours. Type of experiment: in vivo, SD rats. How it is done: Inhibitory effect on the gastric acid secretion in a pylorus ligated rat Male 7-week SD rats were fasted for 24 hours, with a fast of water beginning in early morning of the day when the experiments were performed. The rats were classified into groups each consisting of five rats, such that all the groups have substantially the same average weight. The experiments were performed according to a method of Shay et. al. (Shay, H. et. al., Gastroenterology, Vol. 5, pp43, 1945). Described more specifically, each of the rats was subjected to a light anesthesia by ether, and the hair of the abdomen of each rat was clipped. Then, the abdomen was incised over a length of 1.5 cm along the center line downwards from a portion 1 cm below the xiphoid of the rat, and the stomach was taken out of the body. A portion connecting the pylorus and the duodenum was ligated by suturing thread. […] After the administration, the skin of the abdominal muscle and abdomen was sutured. The rats were kept in cages and fasted for 4 hours with a fast of water. Then, the rats were sacrificed by ether, and the stomach of each rat was removed. The gastric content was obtained from a small hole formed through the stomach of each rat and was collected in a test tube. […] An amount of supernatant was measured as a volume of gastric acid, and a total acidity of the gastric acid was also measured. A volume of gastric acid inhibitory percent (%) and a total acidity inhibitory percent (%) were calculated in the same manner as the ulcer inhibitory percent was calculated. The total acidity was obtained as a product of the amount of gastric acid secreted for 4 hours and the acidity per 1 mL of the gastric acid which was subjected to neutralization titration by an aqueous solution of 0.01N sodium hydroxide.

`CC(C)CN(C)c1ccccc1C[S+]([O-])C1=NC(C)(C)C(=S)N1` (centres unmarked) [Example 14, 2-(2-N-isobutyl-N-methylaminobenzylsulfinyl)-5,5-dimethylimidazolin-4-thione]: the Healing days in the experiment on wound in rat (TABLE 8, 50 mg/kg oral once a day, control 14.3 ± 0.37) came to 13.5 ± 0.42 days; with wound in rat (TABLE 8, 100 mg/kg oral once a day, control 14.3 ± 0.37) it was 13.6 ± 0.44 days. In addition, the “Healing Index” value with wound in rat (TABLE 8, 50 mg/kg oral once a day, control 152.0 ± 9.5) stood at 116.5 ± 7.0; in the experiment with wound in rat (TABLE 8, 100 mg/kg oral once a day, control 152.0 ± 9.5), 126.5 ± 8.3. In addition, the “effect on healing days and Healing Index (in words)” value in the experiment with wound in rat is “effective to reduce the healing days and lower the Healing Index”. Besides, the “Band Intensity” value with bFGF mRNA (3 μM), in the experiment with bFGF mRNA (10 μM) and in the experiment on bFGF mRNA (100 μM) was “++” throughout. For the same compound, the “Production amount of bFGF” value turned out to be 15 pg/mL with bFGF (concentration of drug 3, 24 or 48 hours); 29 pg/mL in the experiment with bFGF (concentration of drug 10, 24 or 48 hours); 36 pg/mL in the experiment on bFGF (concentration of drug 30, 24 or 48 hours).
`CC1(C)N=C([S+]([O-])Cc2ccccc2NCC(F)(F)F)NC1=S` (centres unmarked) [Example 12, 2-[2-N-(2,2,2-trifluoroethyl)aminobenzylsulfinyl]-5,5-dimethylimidazolin-4-thione]: the “Inhibitory Percent (ulcer)” value in experiment [1] was determined as 46.6%.
With `CCC1(CC)N=C([S+]([O-])Cc2ccccc2N(C)C)NC1=S` (centres unmarked) [Example 7, 2-(2-dimethylaminobenzylsulfinyl)-5,5-diethylimidazolin-4-thione], the “Inhibitory Percent (ulcer)” value in experiment [1] stood at 53.9%.
As to `CC1(C)N=C([S+]([O-])Cc2ccccc2NC(=O)C(F)(F)F)NC1=S` (centres unmarked) [Example 1, 2-(2-N-trifluoroacetylaminobenzylsulfinyl)-5,5-dimethylimidazolin-4-thione], the Healing days in the experiment on wound in rat (TABLE 7, 50 mg/kg oral once a day, control 15.1 ± 0.22) came to 14.4 ± 0.38 days; in the experiment on wound in rat (TABLE 7, 100 mg/kg oral once a day, control 15.1 ± 0.22), 14.2 ± 0.37 days. Further, the “Healing Index” value was 183.2 ± 11.2 in the experiment with wound in rat (TABLE 7, 50 mg/kg oral once a day, control 188.3 ± 18.2) and 157.5 ± 18.9 with wound in rat (TABLE 7, 100 mg/kg oral once a day, control 188.3 ± 18.2). In addition, the “effect on healing days and Healing Index (in words)” value in the experiment with wound in rat was “effective to reduce the healing days and lower the Healing Index”. Besides, the “Band Intensity” value in the experiment with bFGF mRNA (10 μM) and in the experiment on bFGF mRNA (100 μM) was “+” in each case.
`CN/C(=N/CCSCc1nc[nH]c1C)NC#N` [cimetidine]: the results for the “Total acidity Inhibitory percent” value in experiment [2] (10 mg/kg intraduodenal), in experiment [2] (30 mg/kg intraduodenal) and in experiment [2] (100 mg/kg intraduodenal) were 27.7%, 51.8% and 76.1%, respectively. Also, the “Volume of Gastric acid Inhibitory percent” value worked out at 22.7% in experiment [2] (10 mg/kg intraduodenal), 31.2% in experiment [2] (30 mg/kg intraduodenal) and 52.8% in experiment [2] (100 mg/kg intraduodenal).
